Drawing on patent US8952157B2, “Apoptosis-inducing agents for the treatment of cancer and immune and autoimmune diseases” (AbbVie Inc., priority 2008, dated 2015), this text covers Ki for four compounds.

The Ki is the equilibrium dissociation constant of an inhibitor or competing ligand from its target. Read a low Ki as higher affinity.

Sequence of GST-Bcl-2 (P10415 whole entry): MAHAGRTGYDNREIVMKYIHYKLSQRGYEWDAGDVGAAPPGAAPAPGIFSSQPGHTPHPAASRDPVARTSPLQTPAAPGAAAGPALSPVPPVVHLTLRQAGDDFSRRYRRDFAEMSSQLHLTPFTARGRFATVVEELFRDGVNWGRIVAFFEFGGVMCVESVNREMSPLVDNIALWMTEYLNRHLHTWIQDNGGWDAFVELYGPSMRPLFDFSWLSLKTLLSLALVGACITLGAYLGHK

The target in this assay is GST-Bcl-2 (Homo sapiens (Human), UniProt P10415). Description: Time Resolved-Fluorescence Resonance Energy Transfer (TR-FRET) Bcl-2 binding assay. The note with it: GST-Bcl-2 1 nM, F-Bak peptide probe 100 nM, Tb-anti-GST antibody 1 nM; Ki by Wang's equation. The gist of the method:
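Competition TR-FRET: GST-Bcl-2 with fluorescent Bak peptide probe and Tb-anti-GST antibody, compounds serially diluted from 50 μM (2× start, 10% DMSO).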
In general terms: In TR-FRET formats the signal depends on donor and acceptor labels being close together.
`CC1(C)CCC(CN2CCN(c3ccc(C(=O)NS(=O)(=O)c4ccc(NC5CCN(C6CCOCC6)CC5)c([N+](=O)[O-])c4)c(Oc4cc5cc[nH]c5c(F)c4F)c3)CC2)=C(c2ccc(Cl)cc2)C1` [Example 201, 4-(4-{[2-(4-chlorophenyl)-4,4-dimethylcyclohex-1-en-1-yl]methyl}piperazin-1-yl)-2-[(6,7-difluoro-1H-indol-5-yl)oxy]-N-({3-nitro-4-[(1-tetrahydro-2H-pyran-4-ylpiperidin-4-yl)amino]phenyl}sulfonyl)benzamide] returned a Ki of 0.01 nM.
`Cc1n[nH]c2cccc(Oc3cc(N4CCN(CC5=C(c6ccc(Cl)cc6)CC(C)(C)CC5)CC4)ccc3C(=O)NS(=O)(=O)c3ccc(NC4CCN(C)CC4)c([N+](=O)[O-])c3)c12` [Example 55, 4-(4-((2-(4-chlorophenyl)-4,4-dimethylcyclohex-1-en-1-yl)methyl)piperazin-1-yl)-2-((3-methyl-1H-indazol-4-yl)oxy)-N-((4-((1-methylpiperidin-4-yl)amino)-3-nitrophenyl)sulfonyl)benzamide] came in with a Ki of 0.09 nM.
As to `CC1(C)CCC(CN2CCN(c3ccc(C(=O)NS(=O)(=O)c4ccc(NC5CCN(CC6CC6)CC5)c([N+](=O)[O-])c4)c(Oc4ccccc4Cl)c3)CC2)=C(c2ccc(Cl)cc2)C1` [Example 188, 2-(2-chlorophenoxy)-4-(4-{[2-(4-chlorophenyl)-4,4-dimethylcyclohex-1-en-1-yl]methyl}piperazin-1-yl)-N-[(4-{[1-(cyclopropylmethyl)piperidin-4-yl]amino}-3-nitrophenyl)sulfonyl]benzamide], affinity was put at a Ki of 0.073 nM. The Ki values of the last two compounds are within 1.5-fold of each other.
Next, `CC(=O)Nc1cccc(Oc2cc(N3CCN(Cc4ccccc4-c4ccc(Cl)cc4)CC3)ccc2C(=O)NS(=O)(=O)c2ccc(NCC3CCOCC3)c([N+](=O)[O-])c2)c1` [Example 17, 2-(3-(acetylamino)phenoxy)-4-(4-((4′-chloro-1,1′-biphenyl-2-yl)methyl)piperazin-1-yl)-N-((3-nitro-4-((tetrahydro-2H-pyran-4-ylmethyl)amino)phenyl)sulfonyl)benzamide]: 5.58 nM.
